Entries after “also recorded” stand apart in the source; their conditions may differ. Read-outs that look alike come from different tables or passages of the source.
What was measured:
cervix of pregnant rats = assay: Cervical ripening assessed in vivo by collagen light-induced fluorescence (LIF) with the collascope; set-up: species or system Sprague-Dawley rats
From the text: (§1) Nonpregnant and timed-pregnant Sprague-Dawley rats (200-250 g) from Charles-River Laboratories (Wilmington, Mass., USA) were delivered to animal care facilities on day 12 of gestation (day 1 being the day when a sperm plug was observed). The animals were housed separately, with free access to food and water and maintained on a constant 12-hour light-dark cycle. Control pregnant rats were spontaneously delivering on day 22 and 23 of gestation. For the measurements with the collascope the animals were anaesthetized (interperitoneal (i.p). injection) with a combination of xylazine (Gemini, Burns Veterinary Supply Inc, Rockville Center, N.Y., USA) and ketamine HCl (Ketaset; Fort Dodge Laboratories Inc, Fort Dodge, Iowa, USA). The animals were randomly allocated to one of the groups and sacrificed by carbon dioxide inhalation on day 3, 5, 7 and 10 postpartum or on day 25 of pregnancy in the groups with delayed delivery. All procedures were approved by the Animal Care and Use Committee of the St. Joseph's Hospital and Medical Center in Phoenix.
(§2) Prior to any treatment LIF measurements were made in control rats throughout pregnancy and postpartum to estimate the LIF profile during gestation (see FIG. 1). Pregnant rats (N=6/group) were treated (see FIG. 2), when not otherwise mentioned (see FIG. 3), from day 13 of pregnancy until delivery. Single daily treatments were performed at 8 a.m. and twice a day treatments at 8 a.m. and 8 p.m. All single injections (4 mg P4, 10 mg 17P, 2 mg promegestone (R5020)) were by the subcutaneous route (s.c.) in sesame oil (0.2 ml), which was also used for the controls. Vaginal gels were applied twice a day with a blunt ball-top needle deep into the vagina. Crinone was used for the P4 vaginal group (equivalent volumes of Crinone were used for 2-15 mg P4/treatment), all data presented show the results of the highest dose (total daily dose of 30 mg P4=⅓ of a applicator of 8% Crinone that contains 90 mg P4). For the vaginal promegestone (R5020) group micronized promegestone (R5020) (1 mg/treatment) was mixed into 0.18 ml of Replens. The control rats for the vaginal groups were treated with Replens (0.18 ml/treatment). For oral P4 treatments (15 mg, bid, vehicle sesame oil or H2O, volume 1 ml) gavage was used. For topical P4 treatment (15 mg, bid, P4 in 1 ml sesame oil, fish oil or in Replens) the drug was applied on the back of animals that were shaved on day 13, 17 and 21. In some animals (N=6) RU-486 (3 mg in 0.2 ml sesame oil) was injected subcutaneously once on day 16 of gestation.
The amount of cervical collagen was evaluated in vivo (only in group subcutaneously P4, vaginal P4, subcutaneously 17P, vaginal promegestone (R5020), subcutaneously RU-486) by measurement of the auto-fluorescent properties of cross-linked collagen with a new prototype of an instrument, termed collascope (Reproductive Research Technologies, Houston, Tex., USA), as used previously with an earlier prototype.
After insertion of a small speculum into the vagina of the anesthetized animal, the optical probe of the collascope was placed on the surface of the exocervix. […] The exposure time for excitation was 100 msec. The average of 20 measurements of the detected fluorescent intensity (photon count) at 390 nm was used for each animal at any given time. Measurements of cervical light-induced fluorescence (LIF) were performed on nonpregnant animals once and in pregnant animals every other day starting at day 13 of gestation until delivery and on postpartum day 3 and/or postpartum day 5 (see FIGS. 2 and 3), and for some animals also on postpartum days 7 and 10 (see FIGS. 1 and 3).
The cervical LIFs obtained at different times of gestation (FIG. 1) were compared using one-way analysis of variance (ANOVA) and multiple pairwise comparison procedures (Holm-Sidak). […]

pregnant rats = assay: Time of delivery of timed-pregnant rats (hours after 8 a.m. of day 22 of gestation); type: in vivo, Sprague-Dawley rats; settings: for delay of delivery compared to vehicle control: from day 13
From the text: as §1, §2
Times of delivery (see also FIG. 4) of controls and various treatment groups were determined as hours after 8 a.m. of day 22 of gestation (FIG. 5). The expulsion of one pup was defined as delivery.
The cervical LIFs obtained at different times of gestation (FIG. 1) were compared using one-way analysis of variance (ANOVA) and multiple pairwise comparison procedures (Holm-Sidak). Student's t-test was used to compare the LIF results of a treatment group to its specific control group at any time in gestation and postpartum and also to determine the differences in delivery times (FIGS. 2, 3 and 5). A two-tailed probability value of P<0.05 was considered statistically significant.
FIG. 15 depicts delay of delivery times in timed pregnant rats treated with progesterone (P4) with different routes and vehicles. Treatment was started on day 13 of gestation and continued until delivery of pups or until delivery was blocked at […] (day 25) past day 22 of gestation. 8 am on day 22 is noted as hour 0 and delay is compared to control group treated only with vehicle. Treatment groups included: P4 in fish oil (vaginal, nasal, injection and topical groups), P4 in cocoa butter (rectal) and P4 in sesame oil (oral). All treatment groups received a total daily dose of 30 mg P4/day except the nasal and subcutaneous injection group which received 1 mg/day and 4 mg/day, respectively. […]

[1] = Plasma progesterone levels in pregnant rats after various treatments; type: in vivo
Experimental: FIG. 6 depicts plasma levels of progesterone following various treatments. Plasma progesterone (P4) levels in pregnant rats at day 18 and 21 days of gestation after treatment with P4 vaginal gel (15 mg bid), P4 injections (4 mg subcutaneous daily), topical P4 in fish oil (15 mg bid) and controls (Ctr) treated with vehicles. FIG. 24 depicts pharmokinetic data related to plasma serum levels after topical delivery in rats following various treatments on day 19 of gestation (single treatment only).

[2] = cited from earlier work
myometrium = settings: P4 at concentrations equivalent to those present in the placenta and uterus; cited from earlier work
[3] = single treatment only on day 19 of gestation

persistence of raised plasma levels following administration ([1]; single topical treatment on day 19 of gestation): persist for 1, 2, or more days
plasma levels after topical delivery [1, 3]: increase markedly
plasma levels after topical delivery compared with subcutaneous injection [1, 3]: even higher than subcutaneous injection
SMILES: CC(=O)[C@H]1CC[C@H]2[C@@H]3CCC4=CC(=O)CC[C@]4(C)[C@H]3CC[C@]12C [P4, progesterone]
cervical LIF, day 25 (delayed delivery) in P4 injection group compared to control animals at day 21 (cervix of pregnant rats; P4 4 mg s.c. daily from day 13): no difference (P<0.05)
cervical LIF / cervical ripening compared with vehicle controls (cervix of pregnant rats; P4 4 mg s.c. daily in sesame oil from day 13 of pregnancy): cervix is rigid; also recorded: significantly (P<0.05) higher; also recorded: longest effect on delaying cervical ripening; also recorded: also prevents further ripening on day 21; also recorded: can only delay, but not completely inhibit cervical ripening; also recorded: delayed but not entirely blocked during the final days of gestation
cervical LIF / cervical ripening compared with vehicle controls (cervix of pregnant rats; vaginal P4 15 mg bid (Crinone) from day 13): no significant differences (P>0.05); also recorded: no effect on cervical ripening; also recorded: no significant differences are observed at any time
delay of delivery compared to controls (pregnant rats; P4 30 mg/day in DHA (docosahexanoic acid) from day 20): significant delays when compared to controls
delay of delivery compared to controls (pregnant rats; P4 30 mg/day in EPA (eicosapentanoic acid) from day 20): All treatment groups except EPA had significant delays
delay of delivery compared to controls (pregnant rats; P4 30 mg/day in GNC Triple Strength fish oil from day 20): significant delays when compared to controls
delay of delivery compared to controls (pregnant rats; P4 30 mg/day in Neptune Krill Oil from day 20): significant delays when compared to controls
delay of delivery compared to controls (pregnant rats; P4 30 mg/day in Nutrasea fish oil from day 20): significant delays when compared to controls
delay of delivery compared to controls (pregnant rats; P4 30 mg/day in Nutrasea+D fish oil from day 20): significant delays when compared to controls
delay of delivery compared to controls (pregnant rats; P4 30 mg/day in Omegasorb GNC fish oil from day 20): complete block of delivery
delay of delivery (pregnant rats; P4 in fish oil, s.c. or topical, all groups begun on days 19, 20, 21 or 22): significant delay of delivery
block of delivery (pregnant rats; P4 in fish oil, subcutaneous injection begun on day 21): complete block in all animals
block of delivery (pregnant rats; P4 in fish oil, topical application begun on day 19): complete block in all animals
delivery (pregnant rats; P4 in fish oil, treatment begun just prior to delivery on day 22): blocked or significantly delayed
effect on delivery (pregnant rats; oral P4 15 mg bid by gavage in sesame oil or H2O from day 13): Delivery was not changed; also recorded: no effect on time of delivery
delay of delivery compared to vehicle control (pregnant rats; rectal P4 in cocoa butter, 30 mg P4/day): significant delay of delivery
effect on delivery (pregnant rats; s.c. injection daily in sesame oil from day 13 (P4 4 mg, 17P 10 mg, R5020 2 mg)): inhibits delivery; also recorded: completely blocked delivery; also recorded: prevented delivery; also recorded: completely inhibited; also recorded: delivery is inhibited
delay of delivery compared to vehicle control (pregnant rats; subcutaneous injection of P4 in fish oil, 4 mg/day): significant delay of delivery
delay of delivery (pregnant rats; topical P4 15 mg bid in Omegasorb fish oil from day 19): significant delay of delivery
effect on delivery (pregnant rats; topical P4 15 mg bid in Replens from day 13): Delivery was not changed; also recorded: not at all
delay of delivery (pregnant rats; topical P4 15 mg bid in coconut oil from day 19): significant delay of delivery
delay of delivery (pregnant rats; topical P4 15 mg bid in corn oil from day 19): All groups but corn oil had significant delay of delivery
effect on delivery (pregnant rats; topical P4 15 mg bid in fish oil from day 13): inhibits delivery; also recorded: completely
delay of delivery (pregnant rats; topical P4 15 mg bid in olive oil from day 19): significant delay of delivery
effect on delivery (pregnant rats; topical P4 15 mg bid in sesame oil from day 13): inhibits delivery; also recorded: only partially
delay of delivery compared to vehicle control (pregnant rats; topical P4 in fish oil, 30 mg P4/day): significant delay of delivery
effect on delivery (pregnant rats; vaginal bid from day 13 (P4 15 mg as Crinone; R5020 1 mg in Replens)): Delivery was not changed; also recorded: failed to inhibit delivery; also recorded: no effect on cervical ripening and on delivery; also recorded: no significant effect on delaying term delivery
plasma circulation levels of progesterone, topical compared to vaginal or subcutaneous injection ([1]; day 21, topical P4 in fish oil 15 mg bid vs vaginal gel 15 mg bid or 4 mg s.c. daily): highly effective in increasing plasma circulation levels of progesterone
half life ([2]; background statement): roughly 32 hours
half life ([2]; statement under advantages): about 30 minutes
spontaneous myometrial contractility (myometrium): inhibits spontaneous myometrial contractility

Reference: patent US10449183B2, “Methods for inhibiting preterm labor and uterine contractility disorders and preventing cervical ripening” (DIGNITY HEALTH, priority 2010, dated 2019)
